Laboratory results as given in patent US20200010482A1, “INHIBITORS OF BETA SECRETASE” (Janssen Pharmaceutica NV, priority 2017, published 2020).

Legend:
BACE1 = biological target: T1, BACE1 (Homo sapiens, UniProt P56817); experiment: BACE1 biochemical FRET based assay; conditions: recombinant BACE1 0.04 μg/ml, 20 μM substrate, 450 min, pH 5.0; for IC50: read-out: BIOCHEMICAL FRET BASED ASSAY pIC50 (converted)
T1 construct: recombinant BACE1 protein in a final concentration of 0.04 μg/ml
Text: (§1) This assay is a Fluorescence Resonance Energy Transfer Assay (FRET) based assay. The substrate for this assay is an APP derived 13 amino acids peptide that contains the ‘Swedish’ Lys-Met/Asn-Leu mutation of the amyloid precursor protein (APP) beta-secretase cleavage site. This substrate also contains two fluorophores: (7-methoxycoumarin-4-yl) acetic acid (Mca) is a fluorescent donor with excitation wavelength at 320 nm and emission at 405 nm and 2,4-Dinitrophenyl (Dnp) is a proprietary quencher acceptor. […] Upon cleavage by BACE1, the fluorophore Mca is separated from the quenching group Dnp, restoring the full fluorescence yield of the donor. The increase in fluorescence is linearly related to the rate of proteolysis.
Briefly in a 384-well format recombinant BACE1 protein in a final concentration of 0.04 μg/ml is incubated for 450 minutes at room temperature with 20 μM substrate in incubation buffer (50 mM Citrate buffer pH 5.0, 0.05% PEG) in the presence of compound or DMSO. Next the amount of proteolysis is directly measured by fluorescence measurement (excitation at 320 nm and emission at 405 nm) at different incubation times (0, 30, 60, 90, 120 and 450 min). For every experiment a time curve (every 30 min between 0 min and 120 min) is used to determine the time where we find the lowest basal signal of the high control. The signal at this time (Tx) is used to subtract from the signal at 450 min. Results are expressed in RFU, as difference between T450 and Tx.
(§2) A best-fit curve is fitted by a minimum sum of squares method to the plot of % Controlmin versus compound concentration. From this an IC50 value (inhibitory concentration causing 50% inhibition of activity) can be obtained. • LC=Median of the low control values=Low control: Reaction without enzyme • HC=Median of the High control values=High Control: Reaction with enzyme
(§3) % Effect=100−[(sample−LC)/(HC−LC)*100]
(§4) % Control=(sample/HC)*100
(§5) % Controlmin=(sample−LC)/(HC−LC)*100

BACE2 = biological target: T2, BACE2 (Homo sapiens, UniProt Q9Y5Z0); experiment: BACE2 biochemical FRET based assay; conditions: recombinant BACE2 0.4 μg/ml, 10 μM substrate, 450 min, pH 5.0; for IC50: read-out: BIOCHEMICAL FRET BASED ASSAY pIC50 (converted)
T2 construct: recombinant BACE2 protein in a final concentration of 0.4 μg/ml
T2 sequence (Q9Y5Z0 63-518): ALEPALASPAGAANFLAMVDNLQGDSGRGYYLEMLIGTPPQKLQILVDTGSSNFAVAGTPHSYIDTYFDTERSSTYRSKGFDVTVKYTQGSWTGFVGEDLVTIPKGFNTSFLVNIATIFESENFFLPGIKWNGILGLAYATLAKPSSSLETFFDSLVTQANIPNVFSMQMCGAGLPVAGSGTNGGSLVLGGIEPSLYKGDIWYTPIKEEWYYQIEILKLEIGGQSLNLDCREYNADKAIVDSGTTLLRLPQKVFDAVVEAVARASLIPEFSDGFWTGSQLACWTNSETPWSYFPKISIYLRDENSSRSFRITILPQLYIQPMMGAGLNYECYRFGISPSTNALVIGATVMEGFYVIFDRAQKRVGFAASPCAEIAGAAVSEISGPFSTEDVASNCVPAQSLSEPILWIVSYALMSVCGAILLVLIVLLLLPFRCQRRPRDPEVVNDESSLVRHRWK
Text: as §1, with “assay” for “assay is an APP derived 13 amino acids peptide that”, “the beta-secretase,” for “BACE1,”
Briefly in a 384-well format recombinant BACE2 protein in a final concentration of 0.4 μg/ml is incubated for 450 minutes at room temperature with 10 μM substrate in incubation buffer (50 mM Citrate buffer pH 5.0, 0.05% PEG, no DMSO) in the absence or presence of compound. Next the amount of proteolysis is directly measured by fluorescence measurement at T=0 and T=450 (excitation at 320 nm and emission at 405 nm). Results are expressed in RFU (Relative Fluorescence Units), as difference between T450 and TO.
as §2, §3, §4, §5

[1] = tested on: Abeta 1-42 produced and secreted by SKNBE2 cells expressing hAPP695; experiment: Cellular αLisa assay in SKNBE2 cells, Abeta 1-42; format: cell-based, human; conditions: SKNBE2 cells expressing hAPP695, 18 hours incubation; for IC50: Homo sapiens, SKNBE2, 18 h, read-out: CELLULAR αLISA ASSAY IN SKNBE2 CELLS ABETA 42 PIC50 (converted)
Protocol: In two αLisa assays the levels of Abeta total and Abeta 1-42 produced and secreted into the medium of human neuroblastoma SKNBE2 cells are quantified. The assay is based on the human neuroblastoma SKNBE2 expressing the wild type Amyloid Precursor Protein (hAPP695). The compounds are diluted and added to these cells, incubated for 18 hours and then measurements of Abeta 1-42 and Abeta total are taken. Abeta total and Abeta 1-42 are measured by sandwich αLisa. αLisa is a sandwich assay using biotinylated antibody AbN/25 attached to streptavidin coated beads and antibody Ab4G8 or cAb42/26 conjugated acceptor beads for the detection of Abeta total and Abeta 1-42 respectively. In the presence of Abeta total or Abeta 1-42, the beads come into close proximity. The excitation of the donor beads provokes the release of singlet oxygen molecules that trigger a cascade of energy transfer in the acceptor beads, resulting in light emission. Light emission is measured after 1 hour incubation (excitation at […] and emission at 615 nm).
as §2, with “cells preincubated” for “Reaction”, “compound, without biotinylated Ab in the αLisa” for “enzyme”, “cells preincubated without compound” for “Reaction with enzyme”
as §3, §4, §5

T1 sequence (P56817 46-501): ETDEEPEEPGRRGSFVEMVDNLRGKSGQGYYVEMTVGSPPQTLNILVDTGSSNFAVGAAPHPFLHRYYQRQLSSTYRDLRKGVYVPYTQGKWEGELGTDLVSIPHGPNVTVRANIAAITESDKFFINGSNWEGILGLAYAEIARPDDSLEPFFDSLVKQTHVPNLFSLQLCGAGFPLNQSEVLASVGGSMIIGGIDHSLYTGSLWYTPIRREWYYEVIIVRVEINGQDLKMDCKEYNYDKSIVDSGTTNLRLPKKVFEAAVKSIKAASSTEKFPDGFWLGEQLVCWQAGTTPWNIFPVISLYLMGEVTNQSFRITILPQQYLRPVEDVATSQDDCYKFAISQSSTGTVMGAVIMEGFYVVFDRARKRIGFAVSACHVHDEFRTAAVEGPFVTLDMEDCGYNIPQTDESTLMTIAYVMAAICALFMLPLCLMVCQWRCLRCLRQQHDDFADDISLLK

SMILES | IC50 (BACE1) | IC50 (BACE2) | IC50 [1] | CELLULAR αLISA ASSAY IN SKNBE2 CELLS ABETA 42 PIC50 [1] | BIOCHEMICAL FRET BASED ASSAY pIC50 (BACE1) | BIOCHEMICAL FRET BASED ASSAY pIC50 (BACE2)
COc1nccc2c1C[C@@]1(c3cc(-c4cncc(C#N)c4)ccc3F)N=C(N)SC[C@H]1C2 [Compound 186] | > 10000 nM | > 10000 nM | > 8910 nM |  |  | 
COc1ncc(-c2cccnc2)c2c1C[C@]1(c3ccc(F)cc3F)N=C(N)OC[C@@H]1C2 (racemic) [Compound 31] | 69.2 nM | 178 nM | 8.91 nM |  |  | 
COc1nccc2c1C[C@]1(c3cc(-c4cncc(C#N)c4)ccc3F)N=C(N)SC[C@@H]1C2 [Compound 37] | 42.7 nM | 123 nM | 17 nM |  |  | 
COc1nccc2c1CC1(c3cc(-c4cncnc4)c(F)cc3F)N=C(N)SCC1C2 (racemic) [Compound 11] | 21.9 nM | 219 nM | 2.95 nM |  |  | 
CCOc1nccc2c1CC1(c3ccc(F)cc3F)N=C(N)SCC1C2 (racemic) [Compound 4] | 166 nM | 331 nM | 186 nM |  |  | 
COc1ccncc1-c1cnc(OC)c2c1C[C@H]1CSC(N)=N[C@@]1(c1ccc(F)cc1F)C2 [Compound 103] | 209 nM | 2570 nM | 13.8 nM |  |  | 
COc1nccc2c1C[C@@]1(c3cc(OCC4CC4)ccc3F)N=C(N)SC[C@H]1C2 [Compound 184] | > 10000 nM | > 10000 nM | 5370 nM |  |  | 
COCC(=O)Nc1cc(C23Cc4c(ccnc4OC)CC2CSC(N)=N3)c(F)cc1F (single isomer, unassigned) [Compound 199] | 16.2 nM | 7.08 nM |  | 8.36 |  | 
COc1nccc2c1CC1(c3cc(-c4cncnc4)ccc3F)N=C(N)SCC1C2 (racemic) [Compound 10] | 35.5 nM | 457 nM | 8.51 nM |  |  | 
COc1ncc(-c2ccncc2C)c2c1CC1(c3ccc(F)cc3F)N=C(N)OCC1C2 (racemic) [Compound 32] | 50.1 nM | 1120 nM | 7.24 nM |  |  | 
COCC(C)NCc1ccc(F)c(C23Cc4c(ccnc4OC)CC2CSC(N)=N3)c1 (racemic) [Compound 13] | 70.8 nM | 39.8 nM | 1.45 nM |  |  | 
COc1nccc2c1CC1(c3cc([N+](=O)[O-])c(F)cc3F)N=C(N)SCC1C2 (racemic) [Compound 8] | 219 nM | 537 nM | 135 nM |  |  | 
COc1ncc(Br)c2c1C[C@]1(c3cc(O)ccc3F)N=C(N)SC[C@@H]1C2 [Compound 42] | 27.5 nM | 29.5 nM | 155 nM |  |  | 
COc1nccc2c1C[C@]1(c3ccc(F)cc3F)N=C(N)OC[C@@H]1C2 (racemic) [Compound 30] | 692 nM | 1150 nM | 170 nM |  |  | 
COc1nccc2c1C[C@@]1(c3cc(-c4cncnc4)ccc3F)N=C(N)SC[C@H]1C2 [Compound 185] | > 10000 nM | > 10000 nM | > 8910 nM |  |  | 
COc1ncc(-c2cnccc2C)c2c1CC1(c3cc(O)ccc3F)N=C(N)SCC1C2 (racemic) [Compound 26] | 25.1 nM | 479 nM | 42.7 nM |  |  | 
COc1nccc2c1CC1(c3cc4c(cc3F)OCC(=O)N4)N=C(N)SCC1C2 (racemic) [Compound 15] | 30.2 nM | 115 nM | 17.4 nM |  |  | 
COc1nccc2c1C[C@]1(c3cc(OCC4CC4)ccc3F)N=C(N)SC[C@@H]1C2 [Compound 136] | 14.8 nM | 14.8 nM | 18.6 nM |  |  | 
COc1nccc2c1CC1(c3cc(C#N)ccc3F)N=C(N)SCC1C2 (racemic) [Compound 9] | 132 nM | 219 nM | 20.9 nM |  |  | 
COc1nccc2c1CC1(c3cc(Br)c(F)cc3F)N=C(N)SCC1C2 (racemic) [Compound 6] | 234 nM | 219 nM | 200 nM |  |  | 
COc1ncc(-c2cncc(C)c2)c2c1C[C@]1(c3ccc(F)cc3F)N=C(N)SC[C@@H]1C2 [Compound 108] | 7.76 nM |  | 1.32 nM |  |  | 
COc1ncc(Br)c2c1C[C@@]1(c3cc(O)ccc3F)N=C(N)SC[C@H]1C2 [Compound 189] | > 10000 nM | > 10000 nM | 6920 nM |  |  | 
COc1nccc2c1CC1(c3cc(-c4cncc(C#N)c4)ccc3F)N=C(N)SCC1C2 (racemic) [Compound 12] | 91.2 nM | 251 nM | 22.4 nM |  |  | 
COc1nccc2c1CC1(c3ccc(Cl)cc3F)N=C(N)SCC1C2 (racemic) [Compound 7] | 145 nM | 155 nM | 70.8 nM |  |  | 
COc1ncc(C2=CCOCC2)c2c1C[C@]1(c3ccc(F)cc3F)N=C(N)SC[C@@H]1C2 [Compound 46] |  |  |  | 9.21 | 8.64 | 8.44
COCC(=O)Nc1cc(C23Cc4c(ccnc4OC)CC2CSC(N)=N3)c(F)cc1F (single isomer, unassigned) [Compound 198] | 1070 nM | 501 nM |  | 6.58 |  | 
COc1ncc(Br)c2c1CC1(c3cc(Br)c(F)cc3F)N=C(N)SCC1C2 (racemic) [Compound 19] | 162 nM | 282 nM | 417 nM |  |  | 
COc1ncc(-c2cnccc2C)c2c1C[C@]1(c3cc(-c4cncnc4)ccc3F)N=C(N)SC[C@@H]1C2 (racemic) [Compound 27] | 11.7 nM | 3980 nM | 3.89 nM |  |  | 
COc1nccc2c1C[C@]1(c3cc(-c4cncnc4)ccc3F)N=C(N)SC[C@@H]1C2 [Compound 38] | 15.5 nM | 229 nM | 3.55 nM |  |  | 
